Laboratory results as given in ChEMBL document CHEMBL1148637, “The combi-targeting concept: synthesis of stable nitrosoureas designed to inhibit the epidermal growth factor receptor (EGFR)” (J Med Chem, 2006).

Legend:
[1] = target: Epidermal growth factor receptor (Homo sapiens, UniProt P00533); assay: Inhibition of EGFR tyrosine kinase
[2] = tested on: NIH3T3; assay: Inhibition of serum-stimulated proliferation of mouse NIH3T3 cell line after 24 hrs; assay type: functional, cell-based; details: NIH3T3, 24 h

Chain of Epidermal growth factor receptor (P00533 whole entry): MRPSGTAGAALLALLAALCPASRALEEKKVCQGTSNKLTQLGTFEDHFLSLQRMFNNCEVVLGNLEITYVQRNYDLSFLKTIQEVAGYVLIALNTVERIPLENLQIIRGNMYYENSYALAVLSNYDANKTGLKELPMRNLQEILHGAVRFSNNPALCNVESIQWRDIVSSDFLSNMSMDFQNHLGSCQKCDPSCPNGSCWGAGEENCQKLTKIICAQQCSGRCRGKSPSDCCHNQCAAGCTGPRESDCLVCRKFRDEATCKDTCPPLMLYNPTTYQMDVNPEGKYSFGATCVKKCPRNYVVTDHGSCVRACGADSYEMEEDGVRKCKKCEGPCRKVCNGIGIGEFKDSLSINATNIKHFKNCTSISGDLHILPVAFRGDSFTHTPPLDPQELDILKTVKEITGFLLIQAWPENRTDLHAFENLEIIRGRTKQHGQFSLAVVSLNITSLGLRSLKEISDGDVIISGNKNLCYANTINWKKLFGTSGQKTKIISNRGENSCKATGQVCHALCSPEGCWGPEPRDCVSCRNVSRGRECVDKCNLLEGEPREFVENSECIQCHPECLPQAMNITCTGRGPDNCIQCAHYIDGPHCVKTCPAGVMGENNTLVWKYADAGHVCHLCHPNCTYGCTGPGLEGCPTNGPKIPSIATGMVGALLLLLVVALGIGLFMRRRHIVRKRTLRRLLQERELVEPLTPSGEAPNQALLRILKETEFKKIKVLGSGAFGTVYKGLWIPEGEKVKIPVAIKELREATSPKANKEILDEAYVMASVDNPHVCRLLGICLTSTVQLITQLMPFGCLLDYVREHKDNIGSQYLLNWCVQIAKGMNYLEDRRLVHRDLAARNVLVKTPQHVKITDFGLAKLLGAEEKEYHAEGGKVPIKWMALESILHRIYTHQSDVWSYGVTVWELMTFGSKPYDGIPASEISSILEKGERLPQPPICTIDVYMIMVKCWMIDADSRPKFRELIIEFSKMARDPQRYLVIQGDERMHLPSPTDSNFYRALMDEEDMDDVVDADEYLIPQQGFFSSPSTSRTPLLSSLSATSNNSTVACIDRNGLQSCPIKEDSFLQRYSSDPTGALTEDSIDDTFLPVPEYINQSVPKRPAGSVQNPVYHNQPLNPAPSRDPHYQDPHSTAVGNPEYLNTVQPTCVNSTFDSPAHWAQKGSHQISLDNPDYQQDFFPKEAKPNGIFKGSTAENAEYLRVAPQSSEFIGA

O=C(NCCCl)Nc1ccc2ncnc(Nc3cccc(Br)c3)c2c1
IC50 [1]: 0.018 µM | IC50 [2]: 35.9 µM

Cc1cccc(Nc2ncnc3ccc(NC(=O)NCCCl)cc23)c1
IC50 [1]: 0.676 µM | IC50 [2]: 31 µM

CNc1ccc2ncnc(Nc3cccc(C)c3)c2c1
IC50 [1]: 0.011 µM | IC50 [2]: 42.8 µM

CNc1ccc2ncnc(Nc3cccc(Cl)c3)c2c1
IC50 [1]: 0.004 µM | IC50 [2]: 49.8 µM

Cc1cccc(Nc2ncnc3ccc(N(C)C(=O)N(CCCl)N=O)cc23)c1
IC50 [2]: 16.5 µM

CN(C(=O)N(CCCl)N=O)c1ccc2ncnc(Nc3cccc(Cl)c3)c2c1
IC50 [1]: 0.204 µM | IC50 [2]: 11.7 µM

O=C(NCCCl)Nc1ccc2ncnc(Nc3cccc(Cl)c3)c2c1
IC50 [1]: 0.022 µM | IC50 [2]: 157 µM

Cc1cccc(Nc2ncnc3ccc(NC(=O)N(CCCl)N=O)cc23)c1
IC50 [1]: 1.06 µM | IC50 [2]: 78.5 µM

O=NN(CCCl)C(=O)Nc1ccc2ncnc(Nc3cccc(Cl)c3)c2c1
IC50 [2]: 157 µM

O=NN(CCCl)C(=O)Nc1ccc2ncnc(Nc3cccc(Br)c3)c2c1
IC50 [1]: 0.047 µM | IC50 [2]: 36.4 µM

CN(C(=O)N(CCCl)N=O)c1ccc2ncnc(Nc3cccc(Br)c3)c2c1
IC50 [1]: 0.294 µM | IC50 [2]: 10.8 µM

Cc1cccc(Nc2ncnc3ccc(N)cc23)c1
IC50 [2]: 44.2 µM

Nc1ccc2ncnc(Nc3cccc(Cl)c3)c2c1
IC50 [2]: 97 µM

CNc1ccc2ncnc(Nc3cccc(Br)c3)c2c1
IC50 [1]: 0.005 µM | IC50 [2]: 17.6 µM

Nc1ccc2ncnc(Nc3cccc(Br)c3)c2c1
IC50 [2]: 26.7 µM
